This assay deals with T1, BACE2 (Rattus norvegicus, UniProt Q6IE75).
T1 construct: endogenous cellular BACE2 in the Ins1e rat cell line; endogenous in cells; host or cells: INS-TMEM27 (INS1e-derived rat beta-cell line with doxycycline-inducible full-length hTMEM27)
T1 sequence (Q6IE75 63-514): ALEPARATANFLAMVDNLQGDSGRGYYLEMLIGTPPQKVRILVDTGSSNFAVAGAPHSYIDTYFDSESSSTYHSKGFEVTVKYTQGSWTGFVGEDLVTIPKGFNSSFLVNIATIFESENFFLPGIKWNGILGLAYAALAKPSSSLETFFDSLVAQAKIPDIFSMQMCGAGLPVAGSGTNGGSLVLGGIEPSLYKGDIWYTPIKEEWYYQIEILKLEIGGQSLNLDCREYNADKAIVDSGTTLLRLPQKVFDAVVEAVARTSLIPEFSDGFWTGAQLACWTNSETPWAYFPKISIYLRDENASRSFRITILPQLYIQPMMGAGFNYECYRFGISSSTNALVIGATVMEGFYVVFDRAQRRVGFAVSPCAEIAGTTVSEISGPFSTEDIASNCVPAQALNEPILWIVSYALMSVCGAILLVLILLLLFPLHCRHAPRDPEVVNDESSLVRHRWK
In words: Assay for BACE inhibition by measuring cellular TMEM27 cleavage (INS-TMEM27 cells, ELISA of shed TMEM27). The assay is classed as cell-based. The conditions noted are these: inhibition of human TMEM27 cleavage by endogenous cellular BACE2 in INS1e-derived INS-TMEM27 rat cell line; ELISA of shed TMEM27 in supernatant. An excerpt: Assay for […] Inhibition by Measuring Cellular TMEM27 Cleavage
This assay uses the principle of inhibition of human TMEM27 cleavage by endogenous cellular BACE2 in the Ins1e rat cell line and shedding from the cell surface into the culture medium, followed by detection in an ELISA assay. Inhibition of BACE2 prevents the cleavage and shedding in a dose-dependent manner.
The stable cell line “INS-TMEM27” represents an INS1e-derived cell line with inducible expression (using the TetOn system) of full-length hTMEM27 in a doxycycline-dependent manner. The cells were cultured throughout the experiment in RPMI1640+Glutamax (Invitrogen) Penicillin/Streptomycin, 10% Fetal bovine serum, 100 mM pyruvate, […] beta-mercatptoethanol, 100 micrograms/ml G418 and 100 microgram/ml hygromycin and were grown in adherent culture at 37° C. in a standard CO2 cell culture incubator.
INS-TMEM27 cells were seeded in 96-well plates. After 2 days in culture, BACE2 inhibitor was added in a range of concentrations as required by the assay and after a further two hours, doxycycline was added to a final concentration of 500 ng/ml. The cells were incubated for a further 46 hours and the supernatant harvested for detection of shed TMEM27.
An ELISA assay (using a pair of mouse anti-human-TMEM27 antibodies, raised against the extracellular domain of TMEM27) was used for detection of TMEM27 in the culture medium. An IC50 for BACE2 inhibition was calculated using the ELISA readout for each inhibitor concentration with standard curve-fitting software.
The inhibitory activity, given as an IC50 value, of the compounds of Examples 1 to 32 and 34 to 74 were as follows.

In the case of `Cc1noc(C2CCCN2C(=O)c2cccc(C(=O)N[C@@H](Cc3ccccc3)[C@H](O)CNCc3cccc(C(F)(F)F)c3)c2)n1` (stereo partly drawn) [Example 17, N-[(1S,2R)-1-Benzyl-2-hydroxy-3-(3-trifluoromethyl-benzylamino)-propyl]-3-[2-(3-methyl-[1,2,4]oxadiazol-5-yl)-pyrrolidine-1-carbonyl]-benzamide], the midpoint of inhibition, the IC50, lay at 213 nM.
Molecule `COc1cccc(CNC[C@@H](O)[C@H](Cc2ccccc2)NC(=O)c2cccc(C(=O)N(C)Cc3nc(C)cs3)c2)c1` [Example 3, N-[(1S,2R)-1-Benzyl-2-hydroxy-3-(3-methoxy-benzylamino)-propyl]-N′-methyl-N′-(4-methyl-thiazol-2-ylmethyl)-isophthalamide] registered an IC50 of 175 nM.
The figure for `CC(C)(C)C1CCCN1C(=O)c1cccc(C(=O)N[C@@H](Cc2ccccc2)[C@H](O)CNCc2cccc(C(F)(F)F)c2)c1` (stereo partly drawn) [Example 73, N-[(1S,2R)-1-Benzyl-2-hydroxy-3-(3-trifluoromethyl-benzylamino)-propyl]-3-(2-tert-butyl-pyrrolidine-1-carbonyl)-benzamide] is 56 nM.
In the case of `COc1cccc(CNC[C@@H](O)[C@H](Cc2ccccc2)NC(=O)c2cccc(C(=O)N3CCCC3c3ccc(C)s3)c2)c1` (stereo partly drawn) [Example 27, N-[(1S,2R)-1-Benzyl-2-hydroxy-3-(3-methoxy-benzylamino)-propyl]-3-[2-(5-methyl-thiophen-2-yl)-pyrrolidine-1-carbonyl]-benzamide] it was 314 nM; in that of `CC1CCN(C(=O)c2cccc(C(=O)N[C@@H](Cc3ccccc3)[C@H](O)CNCc3cccc(C(F)(F)F)c3)c2)C1c1ccc(F)cc1` (stereo partly drawn) [Example 63, N-[(1S,2R)-1-Benzyl-2-hydroxy-3-(3-trifluoromethyl-benzylamino)-propyl]-3-[2-(4-fluoro-phenyl)-3-methyl-pyrrolidine-1-carbonyl]-benzamide], 1 nM.
As for `Cc1cc(C(=O)N[C@@H](Cc2ccccc2)[C@H](O)CNCc2cccc(C(F)(F)F)c2)cc(C(=O)N(C)Cc2ccccn2)c1` [Example 52, N-[(1S,2R)-1-Benzyl-2-hydroxy-3-(3-trifluoromethyl-benzylamino)-propyl]-5,N′-dimethyl-N′-pyridin-2-ylmethyl-isophthalamide], the 50% inhibitory concentration (IC50) amounted to 95 nM.
With `O=C(N[C@@H](Cc1ccccc1)[C@H](O)CNCc1cccc(C(F)(F)F)c1)c1cccc(C(=O)N2CCCC2c2cccnc2)c1` (stereo partly drawn) [Example 13, N-[(1S,2R)-1-Benzyl-2-hydroxy-3-(3-trifluoromethyl-benzylamino)-propyl]-3-(2-pyridin-3-yl-pyrrolidine-1-carbonyl)-benzamide], the IC50 was 68 nM.
`Cc1cccc(C2CCCN2C(=O)c2cccc(C(=O)N[C@@H](Cc3ccccc3)[C@H](O)CNCc3cccc(C(F)(F)F)c3)c2)c1` (stereo partly drawn) [Example 58, N-[(1S,2R)-1-Benzyl-2-hydroxy-3-(3-trifluoromethyl-benzylamino)-propyl]-3-(2-m-tolyl-pyrrolidine-1-carbonyl)-benzamide] had an IC50 of 89 nM.
`Cc1csc([C@H]2CCCN2C(=O)c2cc(C(=O)N[C@@H](Cc3ccccc3)[C@H](O)CNCc3cccc(C(F)(F)F)c3)cc(N(C)S(C)(=O)=O)c2)n1` [Example 48, N-[(1S,2R)-1-Benzyl-2-hydroxy-3-(3-trifluoromethyl-benzylamino)-propyl]-3-(methanesulfonyl-methyl-amino)-5-[(R)-2-(4-methyl-thiazol-2-yl)-pyrrolidine-1-carbonyl]-benzamide] came in with an IC50 of 81 nM.
In the case of `CCc1ccc(C2CCCN2C(=O)c2cccc(C(=O)N[C@@H](Cc3ccccc3)[C@H](O)CNCc3cccc(C(F)(F)F)c3)c2)cc1` (stereo partly drawn) [Example 62, N-[(1S,2R)-1-Benzyl-2-hydroxy-3-(3-trifluoromethyl-benzylamino)-propyl]-3-[2-(4-ethyl-phenyl)-pyrrolidine-1-carbonyl]-benzamide] it was 764 nM; in that of `CCn1cc(CNC[C@@H](O)[C@H](Cc2ccccc2)NC(=O)c2cc(C)cc(C(=O)N3CCCC3c3ccccc3)c2)cn1` (stereo partly drawn) [Example 36, N-{(1S,2R)-1-Benzyl-3-[(1-ethyl-1H-pyrazol-4-ylmethyl)-amino]-2-hydroxy-propyl}-3-methyl-5-(2-phenyl-pyrrolidine-1-carbonyl)-benzamide], 1 nM.
In the case of `CC1(C)[C@@H]2CC[C@@]1(C)CN(C(=O)c1cccc(C(=O)N[C@@H](Cc3ccccc3)[C@H](O)CNCc3cccc(OC(F)(F)F)c3)c1)C2` [Example 8, N-[(1S,2R)-1-Benzyl-2-hydroxy-3-(3-trifluoromethoxy-benzylamino)-propyl]-3-((1R,5S)-1,8,8-trimethyl-3-aza-bicyclo[3.2.1]octane-3-carbonyl)-benzamide] it was 822 nM; in that of `O=C(N[C@@H](Cc1ccccc1)[C@H](O)CNCc1cccc(OC(F)(F)F)c1)c1cccc(C(=O)N2CCC(c3ccccn3)C2)c1` (stereo partly drawn) [Example 9, N-[(1S,2R)-1-Benzyl-2-hydroxy-3-(3-trifluoromethoxy-benzylamino)-propyl]-3-(3-pyridin-2-yl-pyrrolidine-1-carbonyl)-benzamide], 263 nM.
The molecule `O=C(N[C@@H](Cc1ccccc1)[C@H](O)CNCc1cccc(OC(F)(F)F)c1)c1cccc(C(=O)N2CCCC2c2cccnc2)c1` (stereo partly drawn) [Example 25, N-[(1S,2R)-1-Benzyl-2-hydroxy-3-(3-trifluoromethoxy-benzylamino)-propyl]-3-(2-pyridin-3-yl-pyrrolidine-1-carbonyl)-benzamide] returned an IC50 of 70 nM.
The molecule `Cc1csc(CN(C)C(=O)c2cccc(C(=O)N[C@@H](Cc3ccccc3)[C@H](O)CNCc3cccc(OC(F)(F)F)c3)c2)n1` [Example 2, N-[(1S,2R)-1-Benzyl-2-hydroxy-3-(3-trifluoromethoxy-benzylamino)-propyl]-N′-methyl-N′-(4-methyl-thiazol-2-ylmethyl)-isophthalamide] returned a half-inhibitory concentration (IC50) of 258 nM.
`CN(c1cc(C(=O)N[C@@H](Cc2ccccc2)[C@H](O)CNCc2cccc(OC(F)(F)F)c2)cc(C(=O)N2CCCC2c2cccs2)c1)S(C)(=O)=O` (stereo partly drawn) [Example 45, N-[(1S,2R)-1-Benzyl-2-hydroxy-3-(3-trifluoromethoxy-benzylamino)-propyl]-3-(methanesulfonyl-methyl-amino)-5-(2-thiophen-2-yl-pyrrolidine-1-carbonyl)-benzamide] returned an IC50 of 11 nM. This IC50 lies about 23-fold lower than the previous one.
`Cc1cc(C(=O)N[C@@H](Cc2ccccc2)[C@H](O)CNCc2cccc(OC(F)(F)F)c2)cc(C(=O)N(C)Cc2nc(C)cs2)c1` [Example 47, N-[(1S,2R)-1-Benzyl-2-hydroxy-3-(3-trifluoromethoxy-benzylamino)-propyl]-5,N′-dimethyl-N′-(4-methyl-thiazol-2-ylmethyl)-isophthalamide] returned an IC50 of 117 nM. Compared with the last molecule, the IC50 is about 11-fold higher.
In turn, `Cc1cc(C(=O)N[C@@H](Cc2ccccc2)[C@H](O)CNCc2cccc(OC(F)(F)F)c2)cc(C(=O)N2CCC[C@@H]2c2nc(C)cs2)c1` [Example 10, N-[(1S,2R)-1-Benzyl-2-hydroxy-3-(3-trifluoromethoxy-benzylamino)-propyl]-3-methyl-5-[(R)-2-(4-methyl-thiazol-2-yl)-pyrrolidine-1-carbonyl]-benzamide] yielded an IC50 of 14 nM.
The molecule `O=C(N[C@@H](Cc1ccccc1)[C@H](O)CNCc1cccc(C(F)(F)F)c1)c1cccc(C(=O)N2CCCC2c2ccc(F)c(Cl)c2)c1` (stereo partly drawn) [Example 59, N-[(1S,2R)-1-Benzyl-2-hydroxy-3-(3-trifluoromethyl-benzylamino)-propyl]-3-[2-(3-chloro-4-fluoro-phenyl)-pyrrolidine-1-carbonyl]-benzamide] yielded an IC50 of 33 nM.
`Cc1cc(C2CCCN2C(=O)c2cccc(C(=O)N[C@@H](Cc3ccccc3)[C@H](O)CNCc3cccc(C(F)(F)F)c3)c2)ccc1Cl` (stereo partly drawn) [Example 60, N-[(1S,2R)-1-Benzyl-2-hydroxy-3-(3-trifluoromethyl-benzylamino)-propyl]-3-[2-(4-chloro-3-methyl-phenyl)-pyrrolidine-1-carbonyl]-benzamide] showed an IC50 of 267 nM. Compared with the last molecule, the IC50 is about 8.1-fold higher.
In the case of `O=C(NCc1ccccn1)c1cccc(C(=O)N[C@@H](Cc2ccccc2)[C@H](O)CNCc2cccc(OC(F)(F)F)c2)c1` [Example 6, N-[(1S,2R)-1-Benzyl-2-hydroxy-3-(3-trifluoromethoxy-benzylamino)-propyl]-N′-pyridin-2-ylmethyl-isophthalamide] it was 520 nM.

The record behind these values is patent US20120053200A1, “BACE 2 INHIBITORS” (priority 2010, published 2012).
